Assay results taken from patent publication US20090176817A1, “Method of Treatment of Diarrhea-Predominant Irritable Bowel Syndrome in a Subject” (priority 2005, published 2009).

What was measured:
[1] = Study S.241.1.109: interaction with paroxetine 20 mg QD; format: in vivo, human; conditions: in vivo
Description: In an open-label, randomized, parallel-group study in three groups of 12 healthy, male and female subjects (aged 19 to 45 years), subjects received a 2 mg single dose of cilansetron on Day 1, 2 mg TID on Days 2-13, and a 2 mg single dose on Day 14. […] All morning doses of cilansetron and enzyme inhibitors were administered immediately after a standard breakfast. […] For each treatment group, log-transformed cilansetron AUC(0-τ) and Cmax values on Day 14 (cilansetron+enzyme inhibitor) were compared statistically versus values on Day 7 (cilansetron alone).
FIG. 50, FIG. 51, and FIG. 52 present geometric mean steady-state plasma concentration-time profiles for cilansetron and its 4-hydroxy metabolites in the absence and presence of concomitant paroxetine. […] These increases in exposure are not clinically significant.

human P-glycoprotein = biological target: T1, human P-glycoprotein (Homo sapiens, UniProt P08183); assay: Study K.241.6026: in vitro transport by P-glycoprotein in PK 1 LLC MDR cells; format: in vitro ADME; conditions: human
T1 construct: expressed in transfected cells; host or cells: PK 1 LLC MDR cells (LLC-PK1 porcine kidney cells expressing human MDR1, by own knowledge)
T1 sequence (P08183 whole entry): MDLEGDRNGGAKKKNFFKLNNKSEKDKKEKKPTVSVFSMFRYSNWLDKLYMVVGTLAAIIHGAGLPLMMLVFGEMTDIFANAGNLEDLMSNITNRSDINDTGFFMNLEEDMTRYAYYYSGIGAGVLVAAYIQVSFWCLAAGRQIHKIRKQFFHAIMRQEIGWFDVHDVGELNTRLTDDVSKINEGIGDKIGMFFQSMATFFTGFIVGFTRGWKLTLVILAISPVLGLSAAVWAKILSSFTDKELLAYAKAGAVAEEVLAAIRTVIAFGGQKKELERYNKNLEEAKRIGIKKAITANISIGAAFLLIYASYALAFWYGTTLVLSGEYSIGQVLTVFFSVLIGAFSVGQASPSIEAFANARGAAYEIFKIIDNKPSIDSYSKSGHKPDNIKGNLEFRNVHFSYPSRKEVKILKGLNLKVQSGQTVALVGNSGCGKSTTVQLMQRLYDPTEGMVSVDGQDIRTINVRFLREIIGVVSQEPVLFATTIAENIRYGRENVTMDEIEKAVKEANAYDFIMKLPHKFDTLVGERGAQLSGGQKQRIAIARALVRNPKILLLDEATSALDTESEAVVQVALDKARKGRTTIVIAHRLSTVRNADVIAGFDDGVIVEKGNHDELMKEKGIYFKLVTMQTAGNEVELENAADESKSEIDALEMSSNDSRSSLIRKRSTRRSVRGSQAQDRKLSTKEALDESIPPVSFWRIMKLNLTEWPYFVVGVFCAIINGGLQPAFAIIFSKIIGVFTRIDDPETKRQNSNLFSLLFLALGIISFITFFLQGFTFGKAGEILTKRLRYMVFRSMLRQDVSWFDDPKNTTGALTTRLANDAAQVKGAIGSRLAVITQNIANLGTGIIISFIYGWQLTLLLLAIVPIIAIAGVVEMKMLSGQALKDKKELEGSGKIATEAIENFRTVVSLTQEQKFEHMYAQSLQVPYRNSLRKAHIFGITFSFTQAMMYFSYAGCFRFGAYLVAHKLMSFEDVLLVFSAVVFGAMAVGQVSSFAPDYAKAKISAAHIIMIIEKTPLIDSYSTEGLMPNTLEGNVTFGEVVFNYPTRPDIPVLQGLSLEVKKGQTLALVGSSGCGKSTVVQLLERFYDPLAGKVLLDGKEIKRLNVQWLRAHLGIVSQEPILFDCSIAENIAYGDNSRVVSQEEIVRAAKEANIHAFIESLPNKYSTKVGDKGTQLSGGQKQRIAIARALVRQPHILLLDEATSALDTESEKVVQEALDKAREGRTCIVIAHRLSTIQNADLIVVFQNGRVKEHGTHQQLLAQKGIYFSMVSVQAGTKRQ

SMILES: Cc1nccn1C[C@H]1CCc2c(c3cccc4c3n2CCC4)C1=O [Cilansetron, (R)-(−)-4,5,6,8,9,10-hexahydro-10-[(2-methyl-1H-imidazol-1-yl)methyl]-11H-pyrido-[3,2,1-jk]-carbazol-11-one]
- Mean AUC increase with paroxetine ([1]; both, human): 20%
- Mean Cmax increase with paroxetine ([1]; both, human): 36%
- Effect of paroxetine [1]: no significant effect
- Concentration required to saturate P-glycoprotein in vitro (human P-glycoprotein): above 1000 ng/mL
- Membrane Passage (human P-glycoprotein; 3 h): 33%
- P-gp Factor (human P-glycoprotein; 3 h): 3
